Entries after “also recorded” stand apart in the source; their conditions may differ. Where two headings read alike, the source gives them in different places.

In assay [1] the target is neuraminidase from Clostridium perfringens (BNA) (Clostridium perfringens, UniProt P10481). It is filed as binding.
In assay [2] the target is neuraminidase from Clostridium perfringens (BNA, EC 3.2.1.18). It is filed as biochemical. Particulars: for fold higher inhibition than compound 6: ratio of IC50 vs compound 6.
Assay [3] has as its target neuraminidase from Clostridium perfringens (BNA). The class given is biochemical. The note with it: for Kinetic mode: Lineweaver-Burk and Dixon plots.
Setting [4] is: sodium acetate buffer pH 5.0, substrate 100 μM, BNA 0.02 unit/mL, triplicate, read-out: IC50.
[5] abbreviates: Dixon plots, read-out: K i (inhibition constant).

Chain of neuraminidase from Clostridium perfringens (BNA) (Clostridium perfringens, UniProt P10481) (P10481 whole entry, looked up): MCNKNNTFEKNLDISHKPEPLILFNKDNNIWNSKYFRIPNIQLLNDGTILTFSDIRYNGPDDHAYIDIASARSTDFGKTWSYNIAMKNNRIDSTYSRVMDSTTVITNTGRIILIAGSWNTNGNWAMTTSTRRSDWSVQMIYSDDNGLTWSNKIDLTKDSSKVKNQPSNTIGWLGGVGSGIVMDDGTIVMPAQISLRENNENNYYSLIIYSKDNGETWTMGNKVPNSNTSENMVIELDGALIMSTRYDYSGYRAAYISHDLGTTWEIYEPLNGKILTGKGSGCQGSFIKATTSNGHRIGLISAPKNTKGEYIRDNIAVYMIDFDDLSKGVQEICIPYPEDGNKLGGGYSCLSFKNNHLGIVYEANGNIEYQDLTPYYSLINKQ

As for `O=c1c2cc(O)ccc2oc2cc(O)cc(O)c12` [Gentisein, reference compound], in assay [1], the “K A (affinity constant)” value amounted to 110 L/mol, the “K SV (Stern-Volmer constant)” value stood at 5350 L/mol and the “n (binding number of xanthone to the BNA)” value worked out at 0.3701. Besides, in assay [2] (setting [4]), the IC50 was found to be 21.4 ± 0.5 µM. Besides, in assay [2] (text in the panels of supplementary Figure S36, read-out: IC50 printed in Figure S36), the IC50 is 21.4 µM.

On to “(E)-1,3,7-trihydroxy-4-(7-hydroxy-3,7-dimethyloct-2-en-1-yl)-2-(3-methylbut-2-en-1-yl)-9H-xanthen-9-one [Compound 2]”, for which, in assay [1], the “Change of BNA fluorescence (FS) intensity with increasing inhibitor concentration” value is on record as “did not decrease”, the “K A (affinity constant)” value came to 20 L/mol, the “K SV (Stern-Volmer constant)” value is 970 L/mol and the “n (binding number of xanthone to the BNA)” value was 0.1796. The Ki in assay [3] (setting [5]) stood at 40.7 µM. The Kinetic mode result in assay [3] is “Non-competitive”. Moreover, the IC50 in assay [2] (setting [4]) was found to be 38.9 ± 0.6 µM.

On to `C=C(C)CC(O)c1c(O)c(C/C=C(\C)CCC=C(C)C)c2oc3ccc(O)cc3c(=O)c2c1O` (stereo not shown) [Compound 4, cratoxanthone A], for which, in assay [1], the “K A (affinity constant)” value came to 55450 L/mol, the “K SV (Stern-Volmer constant)” value worked out at 27140 L/mol and the “n (binding number of xanthone to the BNA)” value was 0.7819. Moreover, the Ki in assay [3] (setting [5]) is 4.2 µM. In addition, in assay [3], the Kinetic mode entry is recorded as “Non-competitive”. The “fold higher inhibition than compound 6” value in assay [2] came out at 3 fold. The IC50 in assay [2] (setting [4]) came to 3.8 ± 0.1 µM.

As to `C=C(C)C(O)CC/C(C)=C/Cc1c(O)c(CC=C(C)C)c(O)c2c(=O)c3cc(O)ccc3oc12` (stereo not shown) [Compound 1, (E)-1,3,7-trihydroxy-4-(6-hydroxy-3,7-dimethylocta-2,7-dien-1-yl)-2-(3-methylbut-2-en-1-yl)-9H-xanthen-9-one], in assay [1], the “Change of BNA fluorescence (FS) intensity with increasing inhibitor concentration” value is recorded as “decreased dramatically”, the “K A (affinity constant)” value came out at 244300 L/mol, the “K SV (Stern-Volmer constant)” value is 157920 L/mol and the “n (binding number of xanthone to the BNA)” value was 1.2897. For the same compound, in assay [3] (setting [5]), the Ki is 0.17 µM. Moreover, the Kinetic mode entry in assay [3] was “competitive inhibitor”. Moreover, the “Time-dependent (slow-binding) behaviour” value in assay [3] (preincubation 0-75 min) is “reversible slow-binding inhibition; also recorded: simple slow-binding inhibitor; also recorded: simple reversible slow binding behavior”. Further, the Reversibility of inhibition entry in assay [3] (residual activity vs enzyme concentration (0.01, 0.02, 0.04 unit/mL)) was “reversible inhibitor”. For the same compound, the “k 3” value in assay [3] (slow-binding inhibition, forward rate of enzyme-inhibitor complex formation) was determined as 141000 M⁻¹ s⁻¹. Besides, the Ki in assay [3] (slow-binding inhibition, preincubation with 0, 0.2, 0.4, 0.8 µM inhibitor, read-out: K i app) was 0.144 µM. The “k 4” value in assay [3] (slow-binding inhibition, reverse rate) was 0.0203 min⁻¹. Further, the “fold more effective than compound 3” value in assay [2] (ratio of IC50 vs compound 3) is 100 fold. Besides, the “fold higher inhibition than compound 6” value in assay [2] worked out at 30 fold. Further, the IC50 in assay [2] (setting [4]) came to 0.38 ± 0.03 µM.

For `C=C(CCC=C(C)C)C(O)Cc1c(O)c(CC=C(C)C)c(O)c2c(=O)c3cc(O)ccc3oc12` (stereo not shown) [Compound 5, cratoxanthon F], in assay [1], the “K A (affinity constant)” value turned out to be 1030 L/mol, the “K SV (Stern-Volmer constant)” value stood at 10230 L/mol and the “n (binding number of xanthone to the BNA)” value amounted to 0.4992. Moreover, the Ki in assay [3] (setting [5]) was 9.1 µM. Moreover, the Kinetic mode entry in assay [3] is “Non-competitive”. Also, the IC50 in assay [2] (setting [4]) is 9.2 ± 0.2 µM.

For `CC(C)=CCC/C(C)=C/Cc1c(O)c(CC=C(C)C)c(O)c2c(=O)c3cc(O)ccc3oc12` [Compound 6, cochinechinone A], in assay [1], the “K A (affinity constant)” value came to 1800 L/mol, the “K SV (Stern-Volmer constant)” value was 9860 L/mol and the “n (binding number of xanthone to the BNA)” value is on record as 0.4337. Also, the Ki in assay [3] (setting [5]) is 9.6 µM. The Kinetic mode entry in assay [3] is “non-competitive inhibitor”. Further, in assay [2] (ratio of IC50 vs gentisein), the “fold more effective relative to gentisein” value came out at 2 fold. Moreover, the IC50 in assay [2] (setting [4]) amounted to 9.8 ± 0.3 µM.

As for `CC(C)=CCc1c(O)c(C/C=C(\C)C/C=C/C(C)(C)O)c2oc3ccc(O)cc3c(=O)c2c1O` [Compound 3, 1,3,7-trihydroxy-4-[(2E,5E)-7-hydroxy-3,7-dimethylocta-2,5-dien-1-yl]-2-(3-methylbut-2-en-1-yl)-9H-xanthen-9-one], in assay [1], the “K A (affinity constant)” value amounted to 20 L/mol, the “K SV (Stern-Volmer constant)” value is 1000 L/mol and the “n (binding number of xanthone to the BNA)” value worked out at 0.2168. The Ki in assay [3] (setting [5]) was determined as 38.2 µM. Further, the Kinetic mode entry in assay [3] is reported as “Non-competitive”. For the same compound, the 50% inhibitory concentration (IC50) in assay [2] (setting [4]) was 35.8 ± 0.7 µM.

Broadly, the IC50 is the concentration at which inhibition is half-maximal.

The values above are taken from article PMC10445491 (Frontiers in Chemistry, 2023).
